Test results published in US20110256206A1, “IMPLANTABLE DEVICES FOR TREATING HIV” (priority 2008, published 2011).

Tests used:
[1] = clinical studies; less frequent than with marketed NNRTIs; cited from earlier work
[2] = Solubility of TMC278 and of TMC278 recrystallized from DMSO; assay type: physicochemical
Procedure: In addition to increasing the water uptake into the bulk of the polymer, excipients can be used to decrease the crystallinity of the TMC278 and thereby lower the energy necessary to solubilize the drug. […] The recrystallized TMC278 was prepared by dissolving 10 grams of TMC278 in 800 ml of DMSO under gentle stirring for 2 hours. One hundred milliliters of the solution was subsequently poured into a flat bottomed aluminum mold. Solution was lyophilized using a Dora-Stop MTS system. Lyophilized TMC278 was collected. Two grams of PLGA 50/50 were fed into DACA compounder that was pre-set to 120° C. with screws rotating at 100 rpm. After the polymer was fed into the DACA and melted, two grams of lyophilized TMC278 were fed into the compounder and mixed at the set conditions for an additional 5 minutes. The extruded strands were collected, cooled in ambient conditions and placed in plastic bags and stored in a nitrogen box for analysis.
The lowered crystallinity of the TMC278 when re-crystallized from DMSO is also reflected in the change of the appearance of the TMC278 crystals following the recrystallization procedure. The morphology of the TMC278 particles in the drug powder appear compact and needle-shaped, but after the recrystallization process the particles are highly porous (FIG. 3). […]

[3] = Effect of gamma irradiation process parameters on recovery of TMC278 from polymer specimens; assay type: physicochemical
Procedure: For those samples that were irradiated under a nitrogen atmosphere, the following procedure was followed. Polymer implants were prepared containing 60% TMC278 and 40% PLGA 50/50 as described above. Samples were placed in Nalgene™ cuvettes inside the antechamber of a nitrogen glovebox. An automatic vacuum cycle was executed consisting of three 8 minute vacuum purges each followed by nitrogen refilling. The samples were transferred to the main chamber and allowed to equilibrate overnight. The cuvettes were placed in foil pouches and the pouches were sealed before removal from the nitrogen glovebox. Samples were removed from glovebox and irradiated as directed.
Those samples that were irradiated under ambient conditions were placed in vials and aluminum pouches, which were heat sealed under ambient conditions and were stored at 0° C. until they reached that temperature. The samples that were processed at 0° C. were stored at 0° C. Subsequently, the samples were removed from freezer environment and immediately placed in the irradiator. […]
From the data it can be seen that exposure level of irradiation is the most significant factor in achieving complete recovery of TMC278 from irradiated samples. […] In addition, the samples that were exposed to 15 kgy irradiation under nitrogen environment were analyzed for impurities stemming from TMC278 degradation.

| SMILES | Side effects [1] | Solubility in DMSO ([2]; DMSO) | Impurities stemming from TMC278 degradation (mass spectrometry) ([3]; 15 kgy irradiation under nitrogen environment) | TMC278 recovered (average) ([3]; irradiated at 25 kgy (under nitrogen)) | Solubility relative to unrecrystallized TMC278 ([2]; recrystallized (lyophilized from DMSO) versus unrecrystallized TMC278) |
| --- | --- | --- | --- | --- | --- |
| Cc1cc(C=CC#N)cc(C)c1Nc1ccnc(Nc2ccc(C#N)cc2)n1 [TMC278, 4-[[4-[[4-(2-cyanoethenyl)-2,6-dimethylphenyl}-amino]-2-pyrimidinyl]-amino]-benzonitrile] | nausea, dizziness, abnormal dreams, dyspepsia, asthenia, skin rashes, somnolence and vertigo | highly soluble | no new impurities formed by the irradiation | 81% | – |
| Cc1cc(/C=C/C#N)cc(C)c1Nc1ccnc(Nc2ccc(C#N)cc2)n1 [recrystallized TMC278] | – | – | – | – | more than 250 × |
